Data published in patent US20260226073A1 (AURIGENE ONCOLOGY LIMITED, priority 2023, published 2026).

Biological target: T1, human recombinant CBL-b (human Biotin CBL-b recombinant protein a.a. 39-426) (Homo sapiens, UniProt Q13191)
T1 construct: human Biotin CBL-b recombinant protein a.a; 39-426; Biotin (biotinylated); made in house
Assay: Biochemical assay for CBL-b inhibition (ligand displacement TR-FRET)
Format: binding
Settings: 50 nM CBL-b, 0.3 μM Bodipy FL-Probe, read-out: IC50 (CBL-b inhibition, group)
Method: The inhibitory activity of the test compounds was assessed by Ligand displacement TR-FRET assay. The human recombinant CBL-b (human Biotin CBL-b recombinant protein a.a. 39-426; synthesised in-house) was diluted in enzyme assay buffer (20 mM HEPES, 150 mM NaCl, 0.01% Triton X, 0.01% BSA, 0.5 mM TCEP) in a 10 μl volume and plated in 384-well plates (Cat #781075, Greiner) to a final concentration of 50 nM. The enzyme/compound mixture was incubated at RT for 60 min. The Bodipy FL-Probe described in WO 2020/210508 (synthesized in-house) diluted in enzyme assay buffer was added to the plate and incubated for 60 min RT, the final probe concentration was 0.3 μM. After 60 min incubation, 10 μl of detection mix (Terbium Streptavidin, (Cat #PV3576, Invitrogen) diluted in 1× Lance buffer) was added and incubated for 60 min at room temperature. Time-resolved fluorescence (excitation, 320 nm; emission donor, 615 nm; emission acceptor, 665 nm) was monitored by using 2030 multilabel reader Victor5 (PerkinElmer). The IC50 (concentration for half maximal inhibition) and % maximum inhibition of the compounds were estimated by fitting the dose response data to a sigmoidal curve fitting equation using Graph pad Prism software V. 8.

T1 sequence (Q13191 39-426): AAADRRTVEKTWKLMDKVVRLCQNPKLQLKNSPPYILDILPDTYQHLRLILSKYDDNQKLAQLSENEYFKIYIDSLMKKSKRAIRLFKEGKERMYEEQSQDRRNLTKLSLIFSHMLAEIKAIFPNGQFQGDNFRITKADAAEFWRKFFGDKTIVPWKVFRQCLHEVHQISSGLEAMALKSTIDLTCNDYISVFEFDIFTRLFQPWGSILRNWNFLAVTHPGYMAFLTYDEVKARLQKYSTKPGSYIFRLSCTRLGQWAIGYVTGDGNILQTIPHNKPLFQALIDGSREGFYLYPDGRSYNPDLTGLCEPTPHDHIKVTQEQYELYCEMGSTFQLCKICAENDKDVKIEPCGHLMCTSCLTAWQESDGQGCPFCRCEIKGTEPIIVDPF

Row | IC50 [µM] | SMILES
1 | 0.08 to 0.3 | Cc1ccc(CNCc2cc(Cl)nc(N3Cc4ccc(C5(Cc6nncn6C)COC5)cc4C3=O)c2)o1 [Compound 226]
2 | 0.3 to 5 | Cn1cnnc1CC1(c2ccc3c(c2)C(=O)N(c2cc(CNC(C)(C)C4CC4)cc(Cl)n2)C3)COC1 [Compound 228]
3 | 0.3 to 5 | Cc1cccc(CNCc2cc(Cl)nc(N3Cc4ccc(C5(Cc6nncn6C)COC5)cc4C3=O)c2)n1 [Compound 229]
4 | 0.08 to 0.3 | Cn1cnnc1CC1(c2ccc3c(c2)C(=O)N(c2cc(CNC45CC(C4)C5)cc(Cl)n2)C3)COC1 [Compound 235]
5 | 0.3 to 5 | Cc1ccnc(CNCc2cc(Cl)nc(N3Cc4ccc(C5(Cc6nncn6C)COC5)cc4C3=O)c2)c1 [Compound 236]
6 | 0.08 to 0.3 | Cn1cnnc1CC1(c2ccc3c(c2)C(=O)N(c2cc(CNc4ccccn4)cc(Cl)n2)C3)COC1 [Compound 238]
7 | 0.08 to 0.3 | Cn1cnnc1CC1(c2ccc3c(c2)C(=O)N(c2cc(CNCC4(C#N)CCC4)cc(Cl)n2)C3)COC1 [Compound 243]
8 | 0.3 to 5 | CC1CCNC(c2cc(Cl)nc(N3Cc4ccc(C5(Cc6nncn6C)COC5)cc4C3=O)c2)C1 (centres unmarked) [Compound 249]
9 | 0.08 to 0.3 | CC1CCC(CNCc2cc(Cl)nc(N3Cc4ccc(C5(Cc6nncn6C)COC5)cc4C3=O)c2)O1 (centres unmarked) [Compound 250]
10 | 0.08 to 0.3 | CCCC(Cc1nncn1C)c1ccc2c(c1)C(=O)N(c1cc(CNCC3CC3)cc(Cl)n1)C2 (centres unmarked) [Compound 252]
11 | 0.08 to 0.3 | COc1cc(CNCC2CCC2)cc(N2Cc3ccc(C(C)Cc4nncn4C)cc3C2=O)n1 (centres unmarked) [Compound 254]
12 | 0.3 to 5 | Cc1cc(CNCC2CC2)cc(N2Cc3ccc(-c4ccc(F)c(F)c4-c4nncn4C)cc3C2=O)n1 [Compound 257]
13 | < 0.08 | Cc1cc(CN2CCC3(CCC3)C2)cc(N2Cc3ccc(-c4ccc(F)cc4-c4nncn4C)cc3C2=O)n1 [Compound 258]
14 | 0.08 to 0.3 | Cc1cc(CNCC2CC2)cc(N2Cc3ncc(-c4ccc(Cl)cc4-c4nncn4C)cc3C2=O)n1 [Compound 264]
15 | 0.3 to 5 | Cc1cc(CNCC2CC2)cc(N2Cc3ccc(-c4cccnc4-c4nncn4C)cc3C2=O)n1 [Compound 266]
16 | 0.08 to 0.3 | Cc1cc(CNCC2CC2)cc(N2Cc3ccc(-c4cc(F)c(F)cc4-c4nncn4C)cc3C2=O)n1 [Compound 267]
17 | 0.3 to 5 | Cc1cc(CNCC2CC2)cc(N2Cc3ccc(-c4ccc(Cl)cc4-c4nnc5ccccn45)cc3C2=O)n1 [Compound 268]
18 | 0.3 to 5 | Cc1cc(CNCC2CC2)cc(N2Cc3ccc(-c4cc(Cl)ccc4-c4nncn4C)cc3C2=O)n1 [Compound 270]
19 | 0.08 to 0.3 | Cc1cc(CNCC2CC2)cc(N2Cc3ccc(-c4ccc(Cl)cc4-c4cc[nH]n4)cc3C2=O)n1 [Compound 271]
20 | 0.08 to 0.3 | Cc1cc(CNCC2CC2)cc(N2Cc3ccc(-c4ccc(C(F)(F)F)cc4-c4nncn4C)cc3C2=O)n1 [Compound 272]
21 | 0.08 to 0.3 | Cc1cc(CNC(C)(C)CCO)cc(N2Cc3ccc(-c4ccc(Cl)cc4-c4nncn4C)cc3C2=O)n1 [Compound 276]
22 | 0.08 to 0.3 | Cc1cc(CNS(C)(=O)=O)cc(N2Cc3ccc(-c4ccc(F)cc4-c4nncn4C)cc3C2=O)n1 [Compound 283]
23 | 0.3 to 5 | Cc1cc(CN[S+]([O-])C(C)(C)C)cc(N2Cc3ccc(-c4ccc(F)cc4-c4nncn4C)cc3C2=O)n1 (centres unmarked) [Compound 285]
24 | 0.08 to 0.3 | Cc1cc(CN2CCC[C@@H]2CO)cc(N2Cc3ccc(-c4ccc(F)cc4-c4nncn4C)cc3C2=O)n1 [Compound 286]
25 | 0.08 to 0.3 | Cc1cc(CNCC2CC2)cc(N2Cc3ccc(-c4ccc(F)cc4-c4ncco4)cc3C2=O)n1 [Compound 287]

Row | IC50 [µM] | SMILES
26 | 0.3 to 5 | Cc1cc(CN2CCC[C@H]2CO)cc(N2Cc3ccc(-c4ccc(F)cc4-c4nncn4C)cc3C2=O)n1 [Compound 288]
27 | < 0.08 | Cc1cc(CNCC2CC2)cc(N2Cc3ccc(-c4ccc(F)cc4-c4nocc4C)cc3C2=O)n1 [Compound 289, 2-(4-(((Cyclopropylmethyl)amino)methyl)-6-methylpyridin-2-yl)-6-(4-fluoro-2-(4-methylisoxazol-3-yl)phenyl)isoindolin-1-one]
28 | 0.3 to 5 | CO[C@H]1CCN(Cc2cc(C)nc(N3Cc4ccc(-c5ccc(F)cc5-c5nncn5C)cc4C3=O)c2)C1 [Compound 290]
29 | 0.08 to 0.3 | Cc1cc(CNCC2(O)COC2)cc(N2Cc3ccc(-c4ccc(F)cc4-c4nncn4C)cc3C2=O)n1 [Compound 291]
30 | 0.08 to 0.3 | Cc1cc(CNCC2(C)COC2)cc(N2Cc3ccc(-c4ccc(F)cc4-c4nncn4C)cc3C2=O)n1 [Compound 292]
31 | 0.08 to 0.3 | Cc1cc(CN[C@H](CO)C(C)C)cc(N2Cc3ccc(-c4ccc(F)cc4-c4nncn4C)cc3C2=O)n1 [Compound 297]
32 | 0.3 to 5 | Cc1cc(CNC(C)(C)C)cc(N2Cc3ccc(-c4ccc(F)cc4-c4nncn4C)cc3C2=O)n1 [Compound 299]
33 | 0.08 to 0.3 | Cc1cc(CNCCO)cc(N2Cc3ccc(-c4ccc(F)cc4-c4nncn4C)cc3C2=O)n1 [Compound 301]
34 | < 0.08 | Cc1cc(CN(C)CC2CC2)cc(N2Cc3ccc(-c4ccc(F)cc4-c4nncn4C)cc3C2=O)n1 [Compound 312]
35 | 0.3 to 5 | COCCN(Cc1cc(C)nc(N2Cc3ccc(-c4ccc(F)cc4-c4nncn4C)cc3C2=O)c1)CC1CC1 [Compound 313]
36 | 0.08 to 0.3 | Cc1cc(CNCC2(CO)CC2)cc(N2Cc3ccc(-c4ccc(F)cc4-c4nncn4C)cc3C2=O)n1 [Compound 316]
37 | 0.3 to 5 | CCN1CCC[C@@H]1CNCc1cc(C)nc(N2Cc3ccc(-c4ccc(F)cc4-c4nncn4C)cc3C2=O)c1 [Compound 317]
38 | 0.3 to 5 | Cc1cc(CNCC(O)CN)cc(N2Cc3ccc(-c4ccc(F)cc4-c4nncn4C)cc3C2=O)n1 (centres unmarked) [Compound 318]
39 | 0.08 to 0.3 | Cc1cc(CN[C@H](CO)CC(C)C)cc(N2Cc3ccc(-c4ccc(F)cc4-c4nncn4C)cc3C2=O)n1 [Compound 322]
40 | 0.3 to 5 | Cc1cc(CNC(C2CC2)C(F)(F)F)cc(N2Cc3ccc(-c4ccc(F)cc4-c4nncn4C)cc3C2=O)n1 (centres unmarked) [Compound 324]
41 | 0.3 to 5 | CCC(NCc1cc(C)nc(N2Cc3ccc(-c4ccc(F)cc4-c4nncn4C)cc3C2=O)c1)C(=O)NC (centres unmarked) [Compound 327]
42 | 0.08 to 0.3 | Cc1cc(CN)cc(N2Cc3ccc(-c4ccc(F)cc4-c4nncn4C)cc3C2=O)n1 [Compound 331, 2-(4-(Aminomethyl)-6-methylpyridin-2-yl)-6-(4-fluoro-2-(4-methyl-4H-1,2,4triazol-3-yl)phenyl)isoindolin-1-one]
43 | 0.08 to 0.3 | C=C(c1cc(C)nc(N2Cc3ccc(-c4ccc(F)cc4-c4nncn4C)cc3C2=O)c1)c1cnn(C)c1 [Compound 332, 6-(4-Fluoro-2-(4-methyl-4H-1,2,4-triazol-3-yl)phenyl)-2-(6-methyl-4-(1-(1-methyl-1H-pyrazol-4-yl)vinyl)pyridin-2-yl)isoindolin-1-one]
44 | 0.3 to 5 | Cc1cc(C(C)c2cnn(C)c2)cc(N2Cc3ccc(-c4ccc(F)cc4-c4nncn4C)cc3C2=O)n1 (centres unmarked) [Compound 333, 6-(4-Fluoro-2-(4-methyl-4H-1,2,4-triazol-3-yl)phenyl)-2-(6-methyl-4-(1-(1-methyl-1H-pyrazol-4-yl)ethyl)pyridin-2-yl)isoindolin-1-one]
45 | 0.3 to 5 | Cc1cc(C(C)c2nccn2C)cc(N2Cc3ccc(-c4ccc(F)cc4-c4nncn4C)cc3C2=O)n1 (centres unmarked) [Compound 334, 6-(4-Fluoro-2-(4-methyl-4H-1,2,4-triazol-3-yl)phenyl)-2-(6-methyl-4-(1-(1-methyl-1H-imidazol-2-yl)ethyl)pyridin-2-yl)isoindolin-1-one]
46 | 0.08 to 0.3 | CN1CCC/C(=C/c2cc(Cl)nc(N3Cc4ccc(C5(Cc6nncn6C)COC5)cc4C3=O)c2)C1 [Compound 335, (Z)-2-(6-Chloro-4-((1-methylpiperidin-3-ylidene)methyl)pyridin-2-yl)-6-(3-((4-methyl-4H-1,2,4-triazol-3-yl)methyl)oxetan-3-yl)isoindolin-1-one]
47 | 0.3 to 5 | Cc1cc(NCC2CCCN2)cc(N2Cc3ccc(C4(Cc5nncn5C)COC4)cc3C2=O)n1 (centres unmarked) [Compound 336, 2-(6-Methyl-4-((pyrrolidin-2-ylmethyl)amino)pyridin-2-yl)-6-(3-((4-methyl-4H-1,2,4-triazol-3-yl)methyl)oxetan-3-yl)isoindolin-1-one]
48 | 0.08 to 0.3 | Cc1cc(CNC(CC(C)(C)O)C2CC2)cc(N2Cc3ccc(-c4ccc(F)cc4-c4nncn4C)cc3C2=O)n1 (centres unmarked) [Compound 338, 2-(4-(((1-Cyclopropyl-3-hydroxy-3-methylbutyl)amino)methyl)-6-methylpyridin-2-yl)-6-(4-fluoro-2-(4-methyl-4H-1,2,4-triazol-3-yl)phenyl)isoindolin-1-one]
49 | 0.3 to 5 | Cc1cc(CNCC2CCCCN2)cc(N2Cc3ccc(-c4ccc(F)cc4-c4nncn4C)cc3C2=O)n1 (centres unmarked) [Compound 339, 6-(4-Fluoro-2-(4-methyl-4H-1,2,4-triazol-3-yl)phenyl)-2-(6-methyl-4-(((piperidin-2-ylmethyl)amino)methyl)pyridin-2-yl)isoindolin-1-one]
50 | 0.08 to 0.3 | CN(CCC(F)(F)F)Cc1cc(Cl)nc(N2Cc3ccc(C4(Cc5nncn5C)COC4)cc3C2=O)c1 [Compound 340, 2-(6-Chloro-4-((methyl(3,3,3-trifluoropropyl)amino)methyl)-pyridin-2-yl)-6-(3-((4-methyl-4H-1,2,4-triazol-3-yl)methyl)oxetan-3-yl)isoindolin-1-one]
